Results on four molecules are retold here after EPA's ToxRefDB 2.

The subject of data set [1] is dog. As to conditions: Sub-acute repeat dose toxicity; beagle; Oral; Gavage/Intubation; dose end: 4 week; group: systemic; systemic / clinical chemistry / alanine aminotransferase (alt/sgpt) / alanine aminotransferase (alt/sgpt) + systemic / clinical chemistry / ….
Data set [2] deals with rat. As to conditions: Sub-acute repeat dose toxicity, sprague dawley, Oral, Gavage/Intubation, dose end: 4 week, group: systemic.
In data set [3] the test system is rat. To be noted: Carcinogenicity, fischer, Oral, Feed, dose end: 78 week, group: systemic.
Data set [4] deals with mouse. As to conditions: Carcinogenicity, b6c3f1, Oral, Feed, dose end: 80 week, group: systemic.
Data set [5] concerns rat. To be noted: Subchronic oral toxicity in rodents, fischer, Feed, dose end: 26 week, group: systemic.
Data set [6] concerns rat. As to conditions: Combined chronic toxicity/carcinogenicity, fischer, Oral, Feed, dose end: 2 year, group: systemic.
Data set [7] deals with rat. As to conditions: Prenatal developmental toxicity study, wistar, Oral, Gavage/Intubation, dose end: 15 GD.
The subject of data set [8] is rat. To be noted: Subchronic oral toxicity in rodents, wistar, Feed, dose end: 13 week.
The test system of data set [9] is rat. As to conditions: Multigenerational reproductive toxicity study, wistar, Oral, Feed, dose end: 3 generation.
Another data set deals with rabbit. To be noted: Prenatal developmental toxicity study, chinchilla, Oral, Gavage/Intubation, dose end: 18 GD, group: maternal.
In data set [10] the test system is dog. To be noted: Chronic toxicity; beagle; Oral; Feed; dose end: 52 week; group: systemic; systemic / in life observation / clinical signs / abnormal gait + systemic / in life observation / clinical signs / abnormal posture + ….
In data set [11] the test system is mouse. As to conditions: Carcinogenicity, cd1, Oral, Feed, dose end: 80 week, group: systemic.
Data set [12] deals with dog. As to conditions: Subchronic oral toxicity in nonrodent, beagle, Feed, dose end: 13 week, group: systemic, systemic / in life observation / clinical signs / abnormal gait + systemic / in life observation / clinical signs / impaired reflex, nos + ….
Data set [13] concerns dog. As to conditions: Chronic toxicity, beagle, Oral, Feed, dose end: 26 week, group: systemic.
Data set [14] deals with rat. As to conditions: Combined chronic toxicity/carcinogenicity, wistar, Oral, Feed, dose end: 104 week, group: systemic.
Data set [15] relates to dog. As to conditions: Chronic toxicity, beagle, Oral, Feed, dose end: 52 week, group: systemic.
For data set [16], the system named is mouse. As to conditions: Combined chronic toxicity/carcinogenicity, other, Oral, Feed, dose end: 23 month, group: systemic.
The subject of data set [17] is rat. As to conditions: Sub-acute repeat dose toxicity, Oral, Gavage/Intubation, dose end: 4 day, group: systemic.
Data set [18] deals with rat. As to conditions: Sub-acute repeat dose toxicity, Oral, Gavage/Intubation, dose end: 4 day, group: systemic. The source holds these as a separate data set.
Data set [19] deals with rat. To be noted: Sub-acute repeat dose toxicity, Oral, Gavage/Intubation, dose end: 4 day, group: systemic. This is another data set of the same source.
Data set [20] concerns rat. To be noted: Sub-acute repeat dose toxicity, Oral, Gavage/Intubation, dose end: 4 day, group: systemic. The source holds these as a separate data set.
The mark [21] stands for this setting: systemic / clinical chemistry / alanine aminotransferase (alt/sgpt) / alanine aminotransferase (alt/sgpt) + systemic / clinical chemistry / ….
Where [22] appears, read: systemic / organ weight / liver / absolute + systemic / organ weight / liver / relative to body weight + systemic / organ weight / liver / ….
Where [23] appears, read: systemic / in life observation / body weight / body weight + systemic / in life observation / mortality / mortality + systemic / pathology ….
Setting [24] is: systemic / pathology microscopic / liver / hepatocellular carcinoma + systemic / pathology microscopic / liver / neoplastic nodule + ….
Setting [25] is: systemic / pathology microscopic / blood / lymphoma malignant + systemic / pathology microscopic / liver / hepatocellular carcinoma.
The mark [26] stands for this setting: systemic / pathology microscopic / liver / hepatocellular carcinoma.
The mark [27] stands for this setting: systemic / clinical chemistry / glucose / glucose + systemic / clinical chemistry / potassium / potassium + systemic / clinical chemistry / ….
The mark [28] stands for this setting: systemic / hematology / hematocrit (hct) / hematocrit (hct) + systemic / hematology / leukocyte (wbc) count differential / leukocyte (wbc….
[29] abbreviates: systemic / in life observation / body weight / body weight + systemic / in life observation / body weight / body weight gain + systemic / in….
[30] abbreviates: group: developmental, developmental / developmental malformation / bone / enlarged fontanel + developmental / developmental malformation / bone / incomplete ….
[31] abbreviates: group: maternal, systemic / in life observation / body weight / body weight gain + systemic / in life observation / food consumption / food consumption + ….
The mark [32] stands for this setting: group: cholinesterase, cholinesterase / cholinesterase / cholinesterase / cholinesterase (che).
The mark [33] stands for this setting: group: systemic, systemic / clinical chemistry / chloride / chloride.
The mark [34] stands for this setting: group: offspring, developmental / offspring survival late / viability index / viability index + systemic / in life observation / body weight / offspring (pup….
The mark [35] stands for this setting: group: offspring, systemic / in life observation / body weight / offspring (pup) weight gain + developmental / offspring survival late / viability index / ….
[36] abbreviates: group: parental, systemic / in life observation / body weight / body weight.
Setting [37] is: systemic / in life observation / body weight / body weight gain + systemic / in life observation / food consumption / food consumption + ….
Where [38] appears, read: systemic / in life observation / body weight / body weight gain.
Setting [39] is: systemic / in life observation / body weight / body weight gain + systemic / pathology gross / ear / lesion(s) (nos) + systemic / pathology ….
Setting [40] is: systemic / in life observation / clinical signs / defecation (diarrhea) + systemic / in life observation / clinical signs / stiffness + ….
[41] abbreviates: systemic / in life observation / body weight / body weight + systemic / clinical chemistry / [other] / [other] + systemic / organ weight / ….
Setting [42] is: systemic / in life observation / clinical signs / ataxia + systemic / in life observation / clinical signs / defecation (diarrhea) + ….
[43] abbreviates: systemic / clinical chemistry / alkaline phosphatase (alp/alk) / alkaline phosphatase (alp/alk).
The mark [44] stands for this setting: systemic / clinical chemistry / alkaline phosphatase (alp/alk) / alkaline phosphatase (alp/alk) + systemic / in life observation / body ….
The mark [45] stands for this setting: systemic / in life observation / clinical signs / abnormal respiratory sounds + systemic / in life observation / clinical signs / fur (….
[46] abbreviates: systemic / pathology microscopic / liver / necrosis.
Setting [47] is: systemic / organ weight / liver / absolute.
Where [48] appears, read: systemic / organ weight / liver / absolute + systemic / pathology microscopic / liver / necrosis.

Take `O=C(NC(=O)c1cc(F)c(F)cc1Cl)Nc1cc(F)ccc1N1CCC(C(=O)O)CC1` [AVE2865]: in the data set on dog [1], the LEL came to 1 mg/kg/day, the LOAEL was > 10 mg/kg/day, the NEL was < 1 mg/kg/day and the NOAEL was ≥ 10 mg/kg/day. In the data set with rat [2] (setting [21]), the LOAEL came to 35 mg/kg/day and the NOAEL was determined as 5 mg/kg/day. Besides, in the data set on rat [2] (setting [22]), the LEL came out at 5 mg/kg/day and the NEL was < 5 mg/kg/day.

For the molecule `Nc1ccc2c(c1)C(=O)c1ccccc1C2=O` [2-Aminoanthraquinone], the LEL with rat [3] (setting [23]) was found to be 100 mg/kg/day; in the data set with mouse [4] (setting [26]) it was 750 mg/kg/day; in the data set with rat [5] (setting [27]), 500 mg/kg/day. Besides, the NEL is < 100 mg/kg/day in the data set with rat [3] (setting [23]), < 750 mg/kg/day with mouse [4] (setting [26]) and < 500 mg/kg/day in the data set on rat [5] (setting [27]). Moreover, the figures for the LOAEL with rat [3] (setting [24]), with mouse [4] (setting [25]) and with rat [5] (setting [28]) were > 345 mg/kg/day, > 1500 mg/kg/day and > 1000 mg/kg/day, respectively. For the same molecule, the NOAEL was ≥ 345 mg/kg/day in the data set on rat [3] (setting [24]), ≥ 1500 mg/kg/day in the data set with mouse [4] (setting [25]) and ≥ 1000 mg/kg/day with rat [5] (setting [28]).

Regarding `CC1(C)C(C=C(Cl)Cl)C1C(=O)OC(C#N)c1ccc(F)c(Oc2ccccc2)c1` (stereo unspecified) [Cyfluthrin], the LOAEL with rat [6] (systemic / in life observation / body weight / body weight + systemic / in life observation / body weight / body weight gain) was 11.6 mg/kg/day; with rat [7] (setting [30]), 40 mg/kg/day; with rat [7] (group: maternal, systemic / in life observation / body weight / body weight gain + systemic / in life observation / food consumption / food consumption), 10 mg/kg/day; in the data set with rat [8] (setting [32]), > 38.9 mg/kg/day; in the data set with rat [8] (group: systemic, systemic / in life observation / body weight / body weight gain + systemic / in life observation / clinical signs / lack of coordination + …), 38.9 mg/kg/day; in the data set with rat [9] (setting [34]) it was 12.3 mg/kg/day. Further, the LOAEL in the data set with rat [9] (group: parental, systemic / in life observation / body weight / body weight gain) was determined as 37.2 mg/kg/day; in the data set on rabbit (systemic / in life observation / body weight / body weight gain + systemic / in life observation / food consumption / food consumption), 60 mg/kg/day; in the data set on dog [10], 10.6 mg/kg/day; with mouse [11] (setting [39]), 115 mg/kg/day; with dog [12] it was 13.9 mg/kg/day; with dog [13] (setting [40]), 15 mg/kg/day. In addition, the LOAEL in the data set on rat [14] (systemic / in life observation / body weight / body weight) is 19.2 mg/kg/day; in the data set with dog [15] (systemic / in life observation / clinical signs / ataxia), 16 mg/kg/day; in the data set with mouse [16] (setting [44]) it was > 194 mg/kg/day. Besides, the NEL in the data set with rat [6] (setting [29]) was 2.6 mg/kg/day; in the data set with rat [7] (setting [30]), 10 mg/kg/day; in the data set on rat [7] (setting [31]), 3 mg/kg/day; in the data set on rat [8] (setting [32]), 9.5 mg/kg/day; with rat [8] (setting [33]), < 2.3 mg/kg/day; in the data set on rat [9] (setting [35]) it was < 3.8 mg/kg/day. The NEL was < 3.8 mg/kg/day in the data set with rat [9] (setting [36]); 20 mg/kg/day with rabbit (setting [37]); 2.43 mg/kg/day in the data set on dog [10]; < 31.9 mg/kg/day with mouse [11] (setting [38]); 2.36 mg/kg/day in the data set on dog [12]; 1.62 mg/kg/day with dog [13] (setting [40]). Besides, the NEL was 2.02 mg/kg/day with rat [14] (setting [41]), 4 mg/kg/day in the data set on dog [15] (setting [42]) and < 11.6 mg/kg/day with mouse [16] (setting [43]). Further, the NOAEL in the data set with rat [6] (setting [29]) is 2.6 mg/kg/day; in the data set with rat [7] (setting [30]) it was 10 mg/kg/day; with rat [7] (setting [31]) it was 3 mg/kg/day; in the data set with rat [8] (setting [32]), ≥ 38.9 mg/kg/day; in the data set with rat [8] (group: systemic, systemic / clinical chemistry / chloride / chloride + systemic / in life observation / body weight / body weight gain + systemic / in life …), 9.5 mg/kg/day; with rat [9] (setting [34]) it was 3.8 mg/kg/day. In addition, the NOAEL with rat [9] (group: parental, systemic / in life observation / body weight / body weight gain + systemic / in life observation / body weight / body weight) amounted to 12.3 mg/kg/day; in the data set on rabbit (setting [37]), 20 mg/kg/day; in the data set on dog [10], 2.43 mg/kg/day; in the data set on mouse [11] (setting [39]) it was 31.9 mg/kg/day; in the data set on dog [12] it was 2.36 mg/kg/day; with dog [13] (setting [40]), 5 mg/kg/day. Besides, the figures for the NOAEL in the data set on rat [14] (setting [41]), with dog [15] (setting [42]) and in the data set with mouse [16] (setting [44]) were 6.19 mg/kg/day, 4 mg/kg/day and ≥ 194 mg/kg/day, respectively. For the same molecule, the LEL in the data set with rat [6] (systemic / in life observation / body weight / body weight + systemic / in life observation / body weight / body weight gain + systemic / …) worked out at 11.6 mg/kg/day; with rat [7] (setting [30]), 40 mg/kg/day; with rat [7] (setting [31]), 10 mg/kg/day; in the data set with rat [8] (setting [32]), 38.9 mg/kg/day; in the data set with rat [8] (setting [33]) it was 2.3 mg/kg/day; in the data set with rat [9] (setting [35]) it was 3.8 mg/kg/day. Moreover, the LEL in the data set with rat [9] (setting [36]) came to 3.8 mg/kg/day; in the data set on rabbit (setting [37]) it was 60 mg/kg/day; in the data set on dog [10], 10.6 mg/kg/day; with mouse [11] (setting [38]), 31.9 mg/kg/day; in the data set on dog [12] it was 13.9 mg/kg/day; with dog [13] (systemic / organ weight / thymus / absolute), 5 mg/kg/day. Also, the LEL is 6.19 mg/kg/day in the data set with rat [14] (systemic / in life observation / body weight / body weight + systemic / clinical chemistry / [other] / [other]), 16 mg/kg/day in the data set with dog [15] (setting [42]) and 11.6 mg/kg/day with mouse [16] (setting [43]).

In the case of `CNCc1ccc(S(C)(=O)=O)cc1Oc1ccc(Cl)c(C)c1C`, the LOAEL in the data set with rat [17] (setting [45]) was > 500 mg/kg/day; in the data set on rat [18] (setting [47]) it was > 100 mg/kg/day; with rat [19] (setting [45]), > 500 mg/kg/day; in the data set on rat [20] (setting [45]) it was > 500 mg/kg/day. The NOAEL was ≥ 500 mg/kg/day in the data set with rat [17] (setting [45]), ≥ 100 mg/kg/day in the data set on rat [18] (setting [47]), ≥ 500 mg/kg/day with rat [19] (setting [45]) and ≥ 500 mg/kg/day with rat [20] (setting [45]). Further, the LEL in the data set with rat [17] (setting [46]), with rat [18] (setting [48]), in the data set with rat [19] (setting [46]) and with rat [20] (setting [46]) was 30 mg/kg/day each time. Moreover, the NEL in the data set on rat [17] (setting [46]), in the data set on rat [18] (setting [48]), in the data set with rat [19] (setting [46]) and in the data set on rat [20] (setting [46]) was < 30 mg/kg/day throughout.
